According to publication PMC9068900, “Pharmacology of Kappa Opioid Receptors: Novel Assays and Ligands” (Frontiers in Pharmacology, 2022):
Several values for one entry are separate records, joined by “and”; a condition that tells them apart may be missing. Equal values may be shown once. Read-outs that look alike come from different tables or passages of the source. Non-standard residues stand in square brackets, D forms with d. Residues, ends and D or L forms follow the SMILES beside them. Dmt = Cc1cc(O)cc(C)c1C[C@H](N)C(=O)O; Tic = O=C(O)[C@@H]1Cc2ccccc2CN1

What was measured:
kappa opioid receptor [1] = test system: kappa opioid receptor; design: method as in Guerrini et al., 1998; conditions: ref Guerrini et al., 1998; cited from earlier work
[2] = biological target: T1, human kappa opioid receptor (Homo sapiens, UniProt P41145); experiment: Calcium mobilization in CHO cells co-expressing the kappa receptor and Gαqi5; type: cell-based; design: expressed in transfected cells
rabbit jejunum = test system: rabbit jejunum; design: method as in Guerrini et al., 1998; conditions: ref Guerrini et al., 1998; cited from earlier work
[3] = biological target: T1, human kappa opioid receptor; experiment: biochemical; type: biochemical; design: 13-mer linker peptide […]; expressed in transfected cells; enriched plasma membranes used
guinea pig ileum = test system: guinea pig ileum; design: method as in Guerrini et al., 1998; conditions: ref Guerrini et al., 1998; cited from earlier work
[4] = biological target: T1, human kappa opioid receptor; experiment: BRET kappa-β-arrestin 2 interaction, SH-SY5Y whole cells; type: cell-based; design: 13-mer linker peptide […]; expressed in transfected cells; enriched plasma membranes used
[5] = biological target: T1, human kappa opioid receptor; experiment: Dynamic mass redistribution (DMR) label-free assay in CHO cells; type: cell-based; design: expressed in transfected cells
Method: DMR experiments were conducted as previously described ([Malfacini et al., 2018]). Chinese Hamster Ovary (CHO) cells stably expressing the human kappa receptor were kindly provided by L Toll (Torrey Pines Institute for Molecular Studies, Port St. Lucie, United States). Cells were cultured in Dulbecco’s Modified Eagle Medium: Nutrient Mixture F-12 (DMEM/F12) supplemented with 10% (v/v) Fetal Calf Serum (FCS), 100 U/ml penicillin, 100 μg/ml streptomycin, 2 mM L-glutamine, 15 mM HEPES. The medium was supplemented with 400 μg/ml G418 to maintain expression. Cells were seeded at a density of 45,000 cells/well in 120 μL into fibronectin-coated EnspireTM-LC 96-wells plates and cultured for 20 h to form a confluent monolayer. On the day of the experiment, cells were washed twice and maintained with assay buffer: HBSS with 20 mM HEPES, 0.01% BSA fraction V; for 90 min before the experiment. DMR was monitored in real-time with a temporal resolution of 44 s throughout the assay. Experiments were performed at 37°C, using an EnSight Multimode Plate Reader (PerkinElmer). A 5 min baseline was first established, followed by adding compounds manually in a volume of 40 μL and recording compound-triggered DMR signal for 60 min. In antagonism experiments, ligands tested as antagonists were added 30 min before agonist administration. Maximum picometers (pm) modification (peak) were used to determine agonist response after baseline normalization.
The pharmacological terminology is consistent with the International Union of Basic and Clinical Pharmacology (IUPHAR) recommendations ([Neubig et al., 2003]). Concentration-response curves to agonists were fitted to the four-parameter logistic nonlinear regression model as follows: Effect=Basal+ Emax−Basal/1+10^ (LogEC50−Log[ligand]) × HillSlope
If unsurmountable antagonist behavior was detected, the pKB value was derived as follows: a double-reciprocal plot of equi-effective concentrations of agonist (A) in the absence (1/A) and presence (1/A’) of the antagonist (B) was constructed and pKB was derived from the equation pKB = log {(slope-1)/[B]} ([Kenakin, 2009]).

kappa opioid receptor [6] = test system: kappa opioid receptor; design: method as in Zhu et al., 1997; Birch et al., 1987; conditions: ref Zhu et al., 1997; Birch et al., 1987; cited from earlier work
kappa opioid receptor [7] = conditions: ref Simonin et al., 1995; cited from earlier work

T1 sequence (P41145 whole entry): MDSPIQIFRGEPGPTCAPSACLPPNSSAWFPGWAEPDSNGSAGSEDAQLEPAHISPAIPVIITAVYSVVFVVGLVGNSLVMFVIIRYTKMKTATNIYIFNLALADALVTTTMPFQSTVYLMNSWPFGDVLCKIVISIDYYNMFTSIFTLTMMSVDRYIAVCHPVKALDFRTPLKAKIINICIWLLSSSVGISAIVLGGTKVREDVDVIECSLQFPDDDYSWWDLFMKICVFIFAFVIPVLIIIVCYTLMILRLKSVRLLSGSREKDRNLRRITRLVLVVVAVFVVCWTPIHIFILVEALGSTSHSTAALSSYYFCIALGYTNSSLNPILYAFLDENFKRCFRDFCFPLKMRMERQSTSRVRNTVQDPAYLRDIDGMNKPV

CC[C@H](C)[C@H](NC(=O)[C@H](CCCNC(=N)N)NC(=O)[C@H](CCCNC(=N)N)NC(=O)[C@H](CC(C)C)NC(=O)[C@H](Cc1ccccc1)NC(=O)CNC(=O)[C@@H]1Cc2ccccc2CN1C(=O)[C@@H](N)Cc1c(C)cc(O)cc1C)C(=O)N[C@@H](CCCNC(=N)N)C(=O)N1CCC[C@H]1C(=O)N[C@@H](CCCCN)C(N)=O [[Dmt^1,Tic^2], [Dmt^1,Tic^2]Dyn(1-11)-NH2] (H-[Dmt][Tic]GFLRRIRPK-NH2; N-terminus assumed)
Affinity at the mu opioid receptor relative to kappa (in words) (kappa opioid receptor [1]): equal affinity
Affinity values (kappa opioid receptor [1]): 3.3—4.3 nM
Higher affinity at the delta opioid receptor (kappa opioid receptor [1]): 10 fold
Calcium Mobilization pA2 (CL95%) [2]: 6.6
Calcium Mobilization pEC50 (CL95%) [2]: ∼6.9
Calcium Mobilization α (intrinsic activity: maximal effect divided by that of Dyn A) [2]: 0.15
Increase of calcium levels [2]: 50 % over the baseline
Calcium Mobilization pA2 (CL95%) ([2]; cho cells): 6.6 (6.16–7.14)
Antagonist potency (rabbit jejunum): 8 nM
BRET G Protein pA2 (CL95%) [3]: 7.5
BRET G Protein pEC50 (CL95%) [3]: 6.95 (6.14–7.75)
BRET G Protein α [3]: 0.35
Emax ± sem [3]: 0.30 ± 0.02 and 0.35 ± 0.06
pEC50 (CL95%) [3]: 7.09
BRET G Protein pA2 (CL95%) ([3]; sh-sy5y cell membranes): 7.5 (5.35–9.65)
Antagonist potency (guinea pig ileum): 90 nM
BRET β-Arrestin 2 pA2 (CL95%) [4]: 7.3
BRET β-Arrestin 2 pEC50 (CL95%) [4]: inactive
BRET β-Arrestin 2 α [4]: inactive
Residual agonist activity (in words) [4]: did not show any residual agonist activity
BRET β-Arrestin 2 pA2 (CL95%) ([4]; sh-sy5y cells): 7.3 (6.5–8.1)
DMR pA2 (CL95%) [5]: 7.7
DMR pEC50 (CL95%) [5]: 7.11 (5.61–8.61)
DMR α [5]: 0.47
Effect on DMR baseline (in words) [5]: slightly stimulated the DMR response only at micromolar concentrations
DMR pA2 (CL95%) ([5]; cho cells): 7.7 (7.11–8.29)

Oc1ccc2c3c1O[C@H]1c4[nH]c5c(c4C[C@@]4(O)[C@@H](C2)N(CC2CC2)CC[C@]314)C[C@@]1(O)[C@H]2Cc3ccc(O)c4c3[C@@]1(CCN2CC1CC1)[C@H]5O4 [Nor-BNI, Nor-Binaltorphimine]
Potency (kappa opioid receptor [6]): 0.1 nM
Calcium Mobilization pEC50 (CL95%) ([2]; CHO cells, human kappa + Gαqi5): inactive
Calcium Mobilization α (intrinsic activity: maximal effect divided by that of Dyn A) ([2]; CHO cells, human kappa + Gαqi5): inactive
Stimulation of calcium flux (in words) ([2]; tested as agonist): completely inactive
Affinity (kappa opioid receptor [7]): approximately 1 nM
Emax ± sem ([3]; 5 min, fraction of Dyn A maximal effect): inactive
pEC50 (CL95%) ([3]; 5 min after compound addition): inactive
BRET β-Arrestin 2 pEC50 (CL95%) ([4]; SH-SY5Y cells, kappa-RLuc/β-arrestin 2-RGFP): inactive
BRET β-Arrestin 2 α ([4]; relative to Dyn A): inactive
DMR pEC50 (CL95%) ([5]; CHO cells, human kappa): inactive
DMR α ([5]; relative to Dyn A): inactive
Effect on DMR baseline (in words) ([5]; tested as agonist): did not modify DMR baseline
